# Results from patent US20110071171A1, “2H- PYRIMIDO [2, 1-B] QUINAZOLIN-2-ONE DERIVATIVES AND THEIR USE AS PLATELET ANTI-AGGREGATIVE AGENTS” (Shire LLC, priority 2008, published 2011).
# Columns and labels:
# [1] = tested on: TPO-induced megakaryocytopoiesis; details: cited from earlier work
# [2] = target: human phosphodiesterase III (PDE III); details: cited from earlier work
# [3] = tested on: erythroid or myelomonocytic differentiation; details: stimulated by erythropoietin or granulocyte-macrophage colony-stimulating factor; cited from earlier work
# [4] = tested on: platelet count; details: patients with thrombocythemia secondary to a myeloproliferative disorder; cited from earlier work
# [5] = cited from earlier work
# [6] = tested on: human phosphodiesterase III (PDE III); assay: PDE III inhibition; format: biochemical; details: more potent than anagrelide
# From the text: In early volunteer trials, the most frequently reported adverse effects AEs other than headache were palpitations, postural dizziness and nausea. During patient studies, the most frequently reported drug-related AEs were headache, palpitations, oedema/fluid retention, nausea/vomiting, diarrhea, dizziness and abdominal pain. These effects are all likely to arise from the secondary, cardiovascular pharmacology associated with anagrelide resulting from its inhibitory effects on human phosphodiesterase III (PDE III). […] Inhibition of myocardial PDE III leads to positive inotropy (increasing of the force of contractions of the heart), increased chronotropy (increase in heart rate), and peripheral vasodilatation. Such cardiovascular manifestations of this inhibition are typically seen with the classical positive inotropes, milrinone and enoximone, and exploited in the short-term acute treatment of congestive heart failure. However, in the treatment of a so-called silent disease (i.e., asymptomatic) such as ET, the cardiovascular side-effects of palpitations and tachycardia associated with anagrelide limit its utility and a significant proportion of patients—reportedly between 25 and 50%—fail to tolerate the drug during long term treatment.
# The PDE III inhibitory properties of anagrelide are quite distinct from its platelet lowering anti-megakaryocytic effects. […]
# [7] = Pharmacokinetics in humans; format: in vivo, human; details: after anagrelide treatment
# From the text: The PDE III inhibitory properties of anagrelide are quite distinct from its platelet lowering anti-megakaryocytic effects. Indeed studies have shown no correlation between potency as a PDE III inhibitor and anti-megakaryocytic effects for anagrelide and its principal pharmacologically active metabolite, 3-hydroxyanagrelide (3-OH anagrelide or 3-HA, formerly known as SPD604 or BCH24426). […] Anagrelide's active metabolite, 3-HA, is present in vivo in amounts greatly exceeding those of the parent drug with typical exposures being 2-3 fold greater. Thus by implication 3-OH anagrelide is likely to be a major contributor to the pharmacological actions of the drug.
# The metabolism of anagrelide generally proceeds extremely rapidly, resulting in a less than ideal pharmacokinetic profile of the drug. […] This, combined with the side-effects profile, can lead to poor patient compliance. Furthermore, anagrelide undergoes a large first pass effect (>50%) leading to considerable intersubject variation in achieved exposures and, therefore, potentially variable drug response. Also, exposure to the pharmacologically active metabolite varies dramatically between patients since its formation is dependent on CYP1A, an enzyme whose expression is highly dependent on exposure to inducing agents such as cigarette smoke. […]
SMILES,"IC50 ([1]; in vitro, human megakaryocytopoiesis, read-out: estimated IC50, inhibition of TPO-induced megakaryocytopoiesis) [nM]",IC50 [2] [nM],effect on erythroid or myelomonocytic differentiation [3],time to complete response (platelet count ≦600×10^9/L) [4] [weeks],first pass effect ([5]; in vivo) [%],potency as PDE III inhibitor relative to anagrelide [6],in vivo exposure relative to parent drug [7],potency in inhibition of megakaryocytopoiesis relative to anagrelide [1],half-life ([5]; typical) [h]
"O=C1CN2Cc3c(ccc(Cl)c3Cl)N=C2N1 [Anagrelide, 6,7-dichloro-1,5-dihydroimidazo[2,1-b]-quinazolin-2(3H)-one]",~26,~29,does not affect,4 to 12,> 50,–,–,–,–
Cc1[nH]c(=O)c(C#N)cc1-c1ccncc1 [milrinone],–,170 to 350,–,–,–,–,–,–,–
O=C1NC2=Nc3ccc(Cl)c(Cl)c3CN2C1O (stereo not shown) [3-hydroxyanagrelide],–,–,–,–,–,over 40 fold,2-3 fold,no more potent than the parent drug,2.5
